Measurements from patent publication US7939091B2, “Biorational repellents obtained from terpenoids for use against arthropods” (Iowa State University Research Foundation, Inc., priority 1999, dated 2011).
Values joined by “and” are separate entries in the source; they are usually repeats but may differ in a detail not shown here. Identical values can stand only once.

Legend:
Format in all cases: in vivo
[1] = system: German cockroach (Blattella germanica); assay: Choice test arena repellency bioassay, adult male German cockroach, 300-second test; conditions: for Mean Treated / Mean Untreated: 300-second test; for % repellency: (untreated − treated/300)*100
Method: Test Procedure. Repellency bioassays were conducted to assess the repellent properties of compositions containing catnip steam distillate (nepetalactone), Z,E-nepetalactone, E,Z-nepetalactone and DEET against cockroaches. Certified acetone and certified hexane were also tested in order to evaluate solvent effects. (DEET was dissolved in acetone, because DEET is insoluble in hexane. The tested compounds were dissolved in hexane because hexane was the solvent used to extract these compounds from the distillate). One Whatman 125-mm round filter paper was cut in half. One side was treated with one (1) ml of the test compound and the other side was treated with one (1) ml of solvent. The papers were allowed to dry in a fume hood for approximately two (2) minutes before being placed in a 150-mm Petri dish arena. The relative position of the treated side (i.e., to the right or left) of the dish was randomized using a random number table. […] The hole was stopped using a small piece of tape to prevent the insect from escaping. One adult male German cockroach (Blattella germanica) was selected from the colony and dropped into the pre-formed hole in the Petri dish lid. […] Ten (10) replications were performed for each test compound. Results. Using mean values and their related Standard Error of the Mean values (SEM), repellency of the selected samples was determined as shown in Table 2. Significance due to concentration was determined using ANOVA. […] Comparisons between test compounds were made using a two-tailed paired t-test (“paired t-test”) which indicates “differences” as is known in the art and shown in Table 4 (as compared with a “one-tailed” test, which indicates “greater or less than”). Testing Procedure. The same procedure described in Example 1 was used.

[2] = system: northern house mosquito, Culex pipiens; assay: Static-air choice-test apparatus, percentage and contact repellency bioassay; conditions: 15 minutes
Method: A static-air choice-test apparatus as described above was used to determine the behavioral effects on the insects in this study. The apparatus consisted of a 9×60-cm section of glass tubing with a 2-cm hole drilled at the midpoint along the length for central introduction of the insects. All of the testing was conducted in an environmental chamber at 26° C.
Treatments included catnip essential oil, obtained by steam distillation as described herein and in Peterson, et al., J. Econ. Entomol., 2002, 95, 377-380. Osage orange essential oil, obtained by steam distillation of whole fruits previously described in Peterson, et al., J. Essential Oil Res., 2002, 14, 233-236, elemol (Augustus Oils, New Hampshire, England), and DEET (Aldrich, St. Louis, Mo.) test solutions at 1%, 0.5% and 0.1% concentrations (wt/vol). The test solutions' solvent, hexane, served as a control treatment in this assay.
One milliliter of the solution was applied to one half of a 9-cm diameter round filter paper with an area of 63.6 cm^2 and then allowed to dry before testing. […] Treated filter papers were placed inside the lids of 9-cm glass petri dishes, and placed over the ends of the glass tube. The position of the treated side, to the right or to the left, was selected by using a random-number table. Approximately fifteen unmated adult female mosquitoes were anaesthetized with CO2 and then introduced to the 9×60-cm glass cylinder through the centered 2-cm hole. Timing began two minutes after mosquito introduction, and mosquito distribution inside the static-air choice-test apparatus was observed over a 180-minute period for each treatment. Mosquito distribution (number of individuals on treated and untreated side) was recorded at 15, 30, 60, 90, 120, and 180-minute timepoints.
The data generated by this study was used to examine two measures of mosquito repellency, percentage repellency and contact repellency. Percentage repellency was calculated for with the following formula: Percentage Repellency=((Number of Individuals on Untreated Half-Number of Individuals on Treated Half)/15)×100.
Contact repellency was defined in this assay as 100% avoidance of the treated filter paper (no contact). 15, 30, 60, 90, 120, and 180-minute time-points were used to assess contact repellency for individual observations.
The experimental design was a completely randomized design using three replications of each treatment. Analysis of variance was performed on SAS (PROC GLM; SAS Version 8) to identify significant differences of percentage repellency due to treatment, and concentration. Multiple comparisions were completed using Tukey's procedure. Treatment pair-wise comparisons of contact repellency, which included data from the six time-points observed for each treatment, were completed using Fishers Exact (PROC FREQ; SAS Version 8).

[3] = system: northern house mosquito, Culex pipiens; assay: Mosquito residual repellency bioassay (aged treated filter papers), static-air chamber
Description: Aged applications of catnip essential oil, elemol, DEET, and hexane (control) were compared in the static-air choice-test apparatus under the same conditions as described above. The 0.5% and 0.1% (wt/vol) solutions of each test solution were made to yield the same rate of active ingredient used in the above mosquito repellency bioassay. Individually treated filter papers were then placed in a fume hood and aged for 0, 30, 60, 120, or 180-minutes, allowing volatization to occur over a set period of time. After the specified ageing period, filter papers were placed on the inside of the 9-cm glass petri dish lids, and then placed over the ends of the glass tube. The position of the treated side was randomized. Approximately […] unmated adult female mosquitoes were anaesthetized with CO2 and then introduced to the 9×60-cm glass cylinder through the centered 2-cm hole. Timing began 2 minutes after mosquito introduction, and mosquito distribution (number of individuals on treated and untreated sides) inside the static-air choice-test apparatus was recorded after 15 minutes for determination of Percentage Repellency (calculations shown under Percentage and Contact Repellency Bioassay). Experimental design was completely randomized with three replications of each aged test solution. Analysis of variance was used to identify significant differences related to active ingredient, concentration, and ageing period. Regression analysis was used to examine percentage repellency relationship to filter paper ageing.

[4] = concentration 0.1% (15.7 μg/cm^2)
[5] = concentration 0.5% (78.6 μg/cm^2)
[6] = 15.7 μg/cm^2 (0.1%), treatment aged 0 min
[7] = 15.7 μg/cm^2 (0.1%), treatment aged 30 min
[8] = 15.7 μg/cm^2 (0.1%), treatment aged 60 min
[9] = 15.7 μg/cm^2 (0.1%), treatment aged 120 min
[10] = 15.7 μg/cm^2 (0.1%), treatment aged 180 min
[11] = 78.6 μg/cm^2 (0.5%), treatment aged 0 min
[12] = 78.6 μg/cm^2 (0.5%), treatment aged 30 min
[13] = 78.6 μg/cm^2 (0.5%), treatment aged 60 min
[14] = 78.6 μg/cm^2 (0.5%), treatment aged 120 min
[15] = 78.6 μg/cm^2 (0.5%), treatment aged 180 min
[16] = 0.1% test solution vs solvent-treated half, male
[17] = 0.5% test solution vs solvent-treated half, male
[18] = 1% test solution vs solvent-treated half, male
[19] = 5% test solution vs solvent-treated half, male
[20] = 10% test solution vs solvent-treated half, male

## C=CC1(C)CCC(C(C)(C)O)CC1C(=C)C (centres unmarked) [Elemol]
[1]; amount used 1% solution
  Mean Treated: 107 s
  Mean Untreated: 196 s
  % repellency: 30%
[2]; [4]
  Percentage Repellency: 63.0%
[2]; [5]
  Percentage Repellency: 81.3%
[2]; concentration 1% (157 μg/cm^2)
  Percentage Repellency: 74.1%
[3]; [6]
  Percentage Repellency Over Time: 35.0%
[3]; [7]
  Percentage Repellency Over Time: 30.8%
[3]; [8]
  Percentage Repellency Over Time: 49%
[3]; [9]
  Percentage Repellency Over Time: 20.7%
[3]; [10]
  Percentage Repellency Over Time: 44.8%
[3]; [11]
  Percentage Repellency Over Time: 84.7%
[3]; [12]
  Percentage Repellency Over Time: 76.5%
[3]; [13]
  Percentage Repellency Over Time: 96.5%
[3]; [14]
  Percentage Repellency Over Time: 80.8%
[3]; [15]
  Percentage Repellency Over Time: 76.5%

## CCN(CC)C(=O)c1cccc(C)c1 [DEET, N,N-diethyl-3-methylbenzamide, reference compound]
[1]; [16]
  Mean Treated: 129 s
  Mean Untreated: 175 s
[1]; [17]
  Mean Treated: 128 s
  Mean Untreated: 175 s
[1]; [18]
  Mean Treated: 120 s
  Mean Untreated: 181 s
[1]; [19]
  Mean Treated: 113 s
  Mean Untreated: 190 s
[1]; [20]
  Mean Treated: 63 s and 63.4 s
  Mean Untreated: 238 s
[1]; Non-antennectomized male cockroaches, 1600 μg/cm^2
  Mean seconds on treated side ± SEM: 63.4 ± 15.9 s
[1]; dose 16 μg/cm^2
  % repellency: 15%
[1]; dose 16 μg/cm^2, male B. germanica, in 300 seconds
  Mean seconds on treated side ± SEM: 129 ± 9.0 a seconds
[1]; dose 80 μg/cm^2
  % repellency: 16%
[1]; dose 80 μg/cm^2, male B. germanica, in 300 seconds
  Mean seconds on treated side ± SEM: 128 ± 9.7 a seconds
[1]; dose 160 μg/cm^2
  % repellency: 20%
[1]; dose 160 μg/cm^2, male B. germanica, in 300 seconds
  Mean seconds on treated side ± SEM: 120 ± 13.8 a seconds
[1]; dose 800 μg/cm^2
  % repellency: 26%
[1]; dose 800 μg/cm^2, male B. germanica, in 300 seconds
  Mean seconds on treated side ± SEM: 113 ± 14.5 a seconds
[1]; dose 1600 μg/cm^2
  % repellency: 58%
[1]; dose 1600 μg/cm^2, male B. germanica, in 300 seconds
  Mean seconds on treated side ± SEM: 63.4 ± 15.9 b seconds
[2]; [4]
  Percentage Repellency: 59.3%
[2]; [5]
  Percentage Repellency: 62.3%
[2]; concentration 1% (157 μg/cm^2)
  Percentage Repellency: 44.4%
[3]; [6]
  Percentage Repellency Over Time: 54.9%
[3]; [7]
  Percentage Repellency Over Time: 23.1%
[3]; [8]
  Percentage Repellency Over Time: 45.7%
[3]; [9]
  Percentage Repellency Over Time: 39%
[3]; [10]
  Percentage Repellency Over Time: 70.6%
[3]; [11]
  Percentage Repellency Over Time: 74.0%
[3]; [12]
  Percentage Repellency Over Time: 37%
[3]; [13]
  Percentage Repellency Over Time: 59%
[3]; [14]
  Percentage Repellency Over Time: 77.7%
[3]; [15]
  Percentage Repellency Over Time: 74%
